SMILES strings stand for the structures.

The first assay addresses T1, purified human HDAC6 (Homo sapiens, UniProt Q9UBN7).
T1 construct: purchased BPS Bioscience 5006
T1 sequence (Q9UBN7 1-1215): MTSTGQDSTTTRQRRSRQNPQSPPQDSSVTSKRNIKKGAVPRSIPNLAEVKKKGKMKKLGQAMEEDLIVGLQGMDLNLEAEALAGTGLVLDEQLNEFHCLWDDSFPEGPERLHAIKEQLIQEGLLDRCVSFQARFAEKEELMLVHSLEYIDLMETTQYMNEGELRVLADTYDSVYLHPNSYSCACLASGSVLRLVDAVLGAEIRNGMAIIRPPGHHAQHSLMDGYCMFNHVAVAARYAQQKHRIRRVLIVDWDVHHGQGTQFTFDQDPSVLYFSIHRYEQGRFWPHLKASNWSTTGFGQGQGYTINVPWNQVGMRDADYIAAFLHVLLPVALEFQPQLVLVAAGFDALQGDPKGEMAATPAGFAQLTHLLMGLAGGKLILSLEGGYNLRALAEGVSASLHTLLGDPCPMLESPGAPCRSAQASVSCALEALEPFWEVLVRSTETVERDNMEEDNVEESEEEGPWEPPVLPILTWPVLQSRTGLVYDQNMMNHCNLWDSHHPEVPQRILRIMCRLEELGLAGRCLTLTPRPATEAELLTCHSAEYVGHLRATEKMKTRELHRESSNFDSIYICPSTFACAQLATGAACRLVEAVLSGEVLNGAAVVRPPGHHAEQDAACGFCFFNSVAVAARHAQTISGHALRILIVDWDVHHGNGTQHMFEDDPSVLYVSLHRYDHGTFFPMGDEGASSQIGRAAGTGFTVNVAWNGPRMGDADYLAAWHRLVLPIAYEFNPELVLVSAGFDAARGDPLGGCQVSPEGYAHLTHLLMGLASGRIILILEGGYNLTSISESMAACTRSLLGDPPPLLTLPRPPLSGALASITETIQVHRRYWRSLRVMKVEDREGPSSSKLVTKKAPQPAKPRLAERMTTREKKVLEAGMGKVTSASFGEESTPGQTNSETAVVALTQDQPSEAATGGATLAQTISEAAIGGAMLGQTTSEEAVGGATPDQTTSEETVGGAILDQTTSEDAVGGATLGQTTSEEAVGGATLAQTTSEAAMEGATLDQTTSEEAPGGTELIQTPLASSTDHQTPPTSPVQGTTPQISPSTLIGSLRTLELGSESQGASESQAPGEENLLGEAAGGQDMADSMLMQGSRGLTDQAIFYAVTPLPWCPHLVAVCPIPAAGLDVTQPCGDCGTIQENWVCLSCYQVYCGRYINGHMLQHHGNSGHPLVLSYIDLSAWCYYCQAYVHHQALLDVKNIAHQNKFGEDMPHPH
Briefly: HDAC6 Enzyme Assay. The conditions noted are these: bin: greater than 500 nM and less than 1 μM (lower bound in nM, upper bound in μM). Format: biochemical. Here is the method:
To measure the inhibition of HDAC6 activity, purified human HDAC6 (BPS Bioscience; Cat. No. 5006) is incubated with substrate Ac-Arg-Gly-Lys(Ac)-AMC peptide (Bachem Biosciences; Cat. No. 1-1925) for 1 hour at 30° C. in the presence of test compounds or vehicle DMSO control. The reaction is stopped with the HDAC inhibitor trichostatin A (Sigma; Cat. No. T8552) and the amount of Arg-Gly-Lys-AMC generated is quantitated by digestion with trypsin (Sigma; Cat. No. T1426) and subsequent measurement of the amount of AMC released using a fluorescent plate reader (Pherastar; BMG Technologies) set at Ex 340 nm and Em 460 nm. Concentration response curves are generated by calculating the fluorescence increase in test compound-treated samples relative to DMSO-treated controls, and enzyme inhibition (IC50) values are determined from those curves.
By IC50 is commonly meant the concentration at which inhibition is half-maximal. `CC(NC(=O)c1ccn(C)n1)c1cccc(C(=O)NO)c1` (stereo not shown) [Compound I-81, N-(1-{3-[(hydroxyamino)carbonyl]phenyl}ethyl)-1-methyl-1H-pyrazole-3-carboxamide] came in with an IC50 of 500 to 1000 nM.
`O=C(NO)c1ccc([C@@H](NC(=O)C23CC4CC(CC(C4)C2)C3)c2ccccc2)cc1` [Compound I-259, N-[(S)-{4-[(hydroxyamino)carbonyl]phenyl}(phenyl)methyl]adamantane-1-carboxamide] came in with an IC50 of 500 to 1000 nM.

The same assay, now with this note: bin: greater than 1 μM.
Turning to `CC(C)C(NC(=O)Cc1cc(C(F)(F)F)cc(C(F)(F)F)c1)c1ccc(C(=O)NO)cc1` (stereo not shown) [Compound I-250, 4-[1-({[3,5-bis(trifluoromethyl)phenyl]acetyl}amino)-2-methylpropyl]-N-hydroxybenzamide], the IC50 was > 1000 nM.
Turning to `C[C@@H](NC(=O)C(C)(C)C)c1cccc(C(=O)NO)c1` [Compound I-177, 3-{(1R)-1-[(2,2-dimethylpropanoyl)amino]ethyl}-N-hydroxybenzamide], the IC50 was > 1000 nM.
With `Cc1c(C(=O)NC(c2cccc(C(=O)NO)c2)C(C)C)oc2ccccc12` (stereo not shown) [Compound I-93, N-(1-{3-[(hydroxyamino)carbonyl]phenyl}-2-methylpropyl)-3-methyl-1-benzofuran-2-carboxamide], the IC50 was > 1000 nM.
Still for that read-out and setting: as for `CC(NC(=O)CC(C)(C)C)c1cccc(C(=O)NO)c1` (stereo not shown) [Compound I-333, 3-{1-[(3,3-dimethylbutanoyl)amino]ethyl}-N-hydroxybenzamide], the figure is > 1000 nM.

Still in this assay, the particulars now being: purified human HDAC6, substrate Ac-Arg-Gly-Lys(Ac)-AMC, 1 hour at 30° C.; reported as bins.
For `C[C@H](NC(=O)N[C@H](C)c1ccc(C(=O)NO)cc1)c1ccccc1` [Compound I-513, N-hydroxy-4-[(1R)-1-({[(1S)-1-phenylethyl]carbamoyl}amino)ethyl]benzamide], the IC50 is < 100 nM.
With `CC(NC(=O)c1ccc2ccccc2n1)c1ccc(C(=O)NO)cc1` (stereo not shown) [Compound I-128, N-(1-{4-[(hydroxyamino)carbonyl]phenyl}ethyl)quinoline-2-carboxamide], the half-inhibitory concentration (IC50) is < 100 nM.
For the molecule `CC(NC(=O)Nc1ccc2c(c1)OCO2)c1ccc(C(=O)NO)cc1` (stereo not shown) [Compound I-71, 4-(1-{[(1,3-benzodioxol-5-ylamino)carbonyl]amino}ethyl)-N-hydroxybenzamide], the IC50 was < 100 nM.
On to `CC(C)C(NC(=O)C1CCCC1)c1ccc(C(=O)NO)cc1` (stereo not shown) [Compound I-255, 4-{1-[(cyclopentylcarbonyl)amino]-2-methylpropyl}-N-hydroxybenzamide], for which the IC50 is 100 to 500 nM.
The same measure, in the same setting: as for `Cc1c(C(=O)N[C@@H](c2ccc(C(=O)NO)cc2)C(F)(F)F)oc2ccccc12` [Compound I-304, 3-methyl-N-((1S)-2,2,2-trifluoro-1-{4-[(hydroxyamino)carbonyl]phenyl}ethyl)-1-benzofuran-2-carboxamide], the figure is < 100 nM; as for `CCC[C@@H](NC(=O)c1cc2ccccc2o1)c1ccc(C(=O)NO)cc1` [Compound I-79, N-((1R)-1-{4-[(hydroxyamino)carbonyl]phenyl}butyl)-1-benzofuran-2-carboxamide], < 100 nM; as for `Cc1ccc(CNC(=O)NC(C)c2ccc(C(=O)NO)cc2)cc1` (stereo not shown) [Compound I-277, N-hydroxy-4-[1-({[(4-methylbenzyl)amino]carbonyl}amino)ethyl]benzamide], 100 to 500 nM.
Regarding `CC(C)C(NC(=O)c1csc(-c2ccccc2)n1)c1ccc(C(=O)NO)cc1` (stereo not shown) [Compound I-172, N-(1-{4-[(hydroxyamino)carbonyl]phenyl}-2-methylpropyl)-2-phenyl-1,3-thiazole-4-carboxamide], the half-maximal inhibitory concentration (IC50) was < 100 nM.
Same read-out and setting: the result for `CC(NC(=O)Nc1ccc(F)cc1)c1ccc(C(=O)NO)cc1` (stereo not shown) [Compound I-37, 4-[1-({[(4-fluorophenyl)amino]carbonyl}amino)ethyl]-N-hydroxybenzamide] reads < 100 nM.
For `CCC[C@@H](NC(=O)c1cc2oc(-c3ccccc3)cc2n1C)c1ccc(C(=O)NO)cc1` [Compound I-222, N-((1R)-1-{4-[(hydroxyamino)carbonyl]phenyl}butyl)-4-methyl-2-phenyl-4H-furo[3,2-b]pyrrole-5-carboxamide], the IC50 was < 100 nM.
The same measure, in the same setting: as for `Cc1ccc2[nH]c(C(=O)NC(C)c3cccc(C(=O)NO)c3)c(C)c2c1` (stereo not shown) [Compound I-376, N-(1-{3-[(hydroxyamino)carbonyl]phenyl}ethyl)-3,5-dimethyl-1H-indole-2-carboxamide], the figure is 100 to 500 nM.
For `CC(C)[C@@H](NC(=O)c1cc(Cl)c(Cl)n1C)c1ccc(C(=O)NO)cc1` [Compound I-96, 4,5-dichloro-N-((1R)-1-{4-[(hydroxyamino)carbonyl]phenyl}-2-methylpropyl)-1-methyl-1H-pyrrole-2-carboxamide], the IC50 is < 100 nM.
The same measure, in the same setting: as for `CC(C)(C)C(NC(=O)c1c[nH]c2ccccc12)c1ccc(C(=O)NO)cc1` (stereo not shown) [Compound I-319, N-(1-{4-[(hydroxyamino)carbonyl]phenyl}-2,2-dimethylpropyl)-1H-indole-3-carboxamide], the figure is < 100 nM; as for `CC(C)c1cc(C(=O)NC(C)c2ccc(C(=O)NO)cc2)n(C)n1` (stereo not shown) [Compound I-186, N-(1-{4-[(hydroxyamino)carbonyl]phenyl}ethyl)-3-isopropyl-1-methyl-1H-pyrazole-5-carboxamide], < 100 nM; as for `CC(C)(C)C(NC(=O)c1cscn1)c1ccc(C(=O)NO)cc1` (stereo not shown) [Compound I-123, N-(1-{4-[(hydroxyamino)carbonyl]phenyl}-2,2-dimethylpropyl)-1,3-thiazole-4-carboxamide], 100 to 500 nM.
As to `CC(C)[C@H](NC(=O)c1cc2ccccc2[nH]1)c1ccc(C(=O)NO)cc1` [Compound I-279, N-((1S)-1-{4-[(hydroxyamino)carbonyl]phenyl}-2-methylpropyl)-1H-indole-2-carboxamide], the IC50 fell in the range of 100 to 500 nM.
Take `C[C@@H](NCC1(C)CCCCC1)c1ccc(C(=O)NO)cc1` [Compound I-489, N-hydroxy-4-((1R)-1-{[(1-methylcyclohexyl)methyl]amino}ethyl)benzamide]: the IC50 is 100 to 500 nM.
On to `CC(C)[C@@H](NC(=O)NC12CC3CC(CC(C3)C1)C2)c1ccc(C(=O)NO)cc1` [Compound I-354, 4-[(1R)-1-({[1-adamantylamino]carbonyl}amino)-2-methylpropyl]-N-hydroxybenzamide], for which the 50% inhibitory concentration (IC50) is < 100 nM.
For the molecule `CC(NC(=O)c1ccc2ccccc2c1)c1ccc(C(=O)NO)cc1` (stereo not shown) [Compound I-327, N-(1-{4-[(hydroxyamino)carbonyl]phenyl}ethyl)-2-naphthamide], the IC50 is < 100 nM.
Molecule `CC(C)C(NC(=O)c1cc(C(F)(F)F)cc(C(F)(F)F)c1)c1ccc(C(=O)NO)cc1` (stereo not shown) [Compound I-173, N-(1-{4-[(hydroxyamino)carbonyl]phenyl}-2-methylpropyl)-3,5-bis(trifluoromethyl)benzamide] yielded an IC50 of 100 to 500 nM.
Regarding `CC(NC(=O)Nc1cccc(C(F)(F)F)c1)c1ccc(C(=O)NO)cc1` (stereo not shown) [Compound I-371, N-hydroxy-4-{1-[({[3-(trifluoromethyl)phenyl]amino}carbonyl)amino]ethyl}benzamide], the IC50 is < 100 nM.
On the same count and under the same terms, as for `C[C@@H](NC(=O)N[C@H](C)c1ccc(C(=O)NO)cc1)c1ccccc1` [Compound I-517, N-hydroxy-4-[(1R)-1-({[(1R)-1-phenylethyl]carbamoyl}amino)ethyl]benzamide], the figure is 100 to 500 nM.

These data come from patent publication US9382197B2, “Substituted hydroxamic acids and uses thereof” (Millennium Pharmaceuticals, Inc., priority 2010, dated 2016).
